Results on 20 compounds are retold here after ChEMBL document CHEMBL5625171, “Design, synthesis, and biological studies of novel sulfonamide derivatives as farnesoid X receptor agonists” (Eur J Med Chem, 2023).

Bounds are passed on as bounds.

Data set [1] deals with T1, Bile acid receptor (Homo sapiens, UniProt Q96RI1).
T1 sequence (Q96RI1 whole entry): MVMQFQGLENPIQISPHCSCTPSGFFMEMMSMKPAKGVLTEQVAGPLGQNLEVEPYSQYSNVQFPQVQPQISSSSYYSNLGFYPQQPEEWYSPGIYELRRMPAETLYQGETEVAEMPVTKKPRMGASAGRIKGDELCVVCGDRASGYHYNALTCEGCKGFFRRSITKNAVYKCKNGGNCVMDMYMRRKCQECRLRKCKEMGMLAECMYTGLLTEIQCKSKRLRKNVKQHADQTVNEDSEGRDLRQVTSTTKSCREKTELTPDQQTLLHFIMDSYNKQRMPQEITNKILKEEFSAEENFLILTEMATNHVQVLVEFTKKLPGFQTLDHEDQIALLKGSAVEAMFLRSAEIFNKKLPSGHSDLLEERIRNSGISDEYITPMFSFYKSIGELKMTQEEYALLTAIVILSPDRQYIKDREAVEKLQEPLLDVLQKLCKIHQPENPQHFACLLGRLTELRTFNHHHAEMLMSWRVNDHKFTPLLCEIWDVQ
Briefly: Agonist activity at FXR LBD (unknown origin) using fluorescein-SRC2-2 as substrate incubated for 3 hrs by TR-FRET assay.

Data set [2] in a line: Sub-acute toxicity in ICR mouse assessed as animal death at 500 mg/kg, po qd treated for 10 days. In kind it is organism-based. Conditions: in vivo, 240 h, time 10 day.
Data set [3] can be described thus: Sub-acute toxicity in ICR mouse assessed as abnormal behaviour at 500 mg/kg, po qd treated for 10 days. The class given is organism-based. Conditions: in vivo, 240 h, time 10 day.
Data set [4] in a line: Sub-acute toxicity in ICR mouse assessed as change in serum AST level at 500 mg/kg, po qd treated for 10 days. In kind it is organism-based. Particulars: in vivo, 240 h, time 10 day.
Data set [5] can be described thus: Sub-acute toxicity in ICR mouse assessed as change in serum ALT level at 500 mg/kg, po qd treated for 10 days. The class given is organism-based. Particulars: in vivo, 240 h, time 10 day.
A short description of data set [6]: Sub-acute toxicity in ICR mouse assessed as change in serum ALP level at 500 mg/kg, po qd treated for 10 days. The class given is organism-based. Particulars: in vivo, 240 h, time 10 day.
The nature of data set [7]: Sub-acute toxicity in ICR mouse assessed as change in serum TBIL level at 500 mg/kg, po qd treated for 10 days. In kind it is organism-based. Particulars: in vivo, 240 h, time 10 day.
Data set [8] can be described thus: Sub-acute toxicity in ICR mouse assessed as change in serum DBIL level at 500 mg/kg, po qd treated for 10 days. The class given is organism-based. Conditions: in vivo, 240 h, time 10 day.
Data set [9] in a line: Sub-acute toxicity in ICR mouse assessed as change in serum TG level at 500 mg/kg, po qd treated for 10 days. In kind it is organism-based. Conditions: in vivo, 240 h, time 10 day.
Data set [10] is described as follows: Sub-acute toxicity in ICR mouse assessed as change in serum TC level at 500 mg/kg, po qd treated for 10 days. Particulars: in vivo, 240 h, time 10 day. In kind it is organism-based.
Data set [11] in a line: Sub-acute toxicity in ICR mouse assessed as change in serum creatinine level at 500 mg/kg, po qd treated for 10 days. The class given is organism-based. Particulars: in vivo, 240 h, time 10 day.
Data set [12] in a line: Sub-acute toxicity in ICR mouse assessed as change in serum urea level at 500 mg/kg, po qd treated for 10 days. Particulars: in vivo, 240 h, time 10 day. In kind it is organism-based.
A short description of data set [13]: Sub-acute toxicity in ICR mouse assessed as anomaly in heart at 500 mg/kg, po qd treated for 10 days. The class given is organism-based. Particulars: in vivo, 240 h, time 10 day.
Data set [14] can be described thus: Sub-acute toxicity in ICR mouse assessed as anomaly in liver at 500 mg/kg, po qd treated for 10 days. The class given is organism-based. Particulars: in vivo, 240 h, time 10 day.
Data set [15] can be described thus: Sub-acute toxicity in ICR mouse assessed as anomaly in spleen at 500 mg/kg, po qd treated for 10 days. The class given is organism-based. Conditions: in vivo, 240 h, time 10 day.
The nature of data set [16]: Sub-acute toxicity in ICR mouse assessed as anomaly in lung at 500 mg/kg, po qd treated for 10 days. The class given is organism-based. Conditions: in vivo, 240 h, time 10 day.
Data set [17] is described as follows: Sub-acute toxicity in ICR mouse assessed as anomaly in kidney at 500 mg/kg, po qd treated for 10 days. Conditions: in vivo, 240 h, time 10 day. In kind it is organism-based.

For the compound `CC#CC(CC(=O)O)c1ccc(OCc2ccc(N(CC(C)C)S(=O)(=O)c3c(Cl)cccc3Cl)cc2)cc1` (stereo not given), the EC50 in [1] is over 10 µM. On the same count and under the same terms, the value for `CC(C)CN(c1ccc(-c2cccc(C3(C(=O)O)CC3)c2)cc1)S(=O)(=O)c1c(Cl)cccc1Cl` was over 10 µM. Take `CC(C)CN(c1ccc(-c2ccc(C(=O)O)cc2)cc1)S(=O)(=O)c1c(Cl)cccc1Cl`: the EC50 in data set [1] amounted to 3.5 µM. In data set [1], `CC(C)CN(c1ccc(-c2ccc(OC(C)C(=O)O)c(F)c2)cc1)S(=O)(=O)c1c(Cl)cccc1Cl` (stereo not given) displayed an EC50 of 8.7 µM. Turning to `CC(C)CN(c1ccc(-c2ccc(C(=O)NC3CC3)cc2)cc1)S(=O)(=O)c1c(Cl)cccc1Cl`, the EC50 in data set [1] was over 10 µM.

The compound `CC(C)CN(c1ccc(-c2ccc(CCC(=O)O)cc2)cc1)S(=O)(=O)c1c(Cl)cccc1Cl` registered an EC50 in data set [1] of 6.5 µM. For `CC(C)CN(c1ccc(-c2ccc(OC(C)(C)C(=O)O)c(F)c2)cc1)S(=O)(=O)c1c(Cl)cccc1Cl`, in data set [1], the EC50 was over 10 µM. `CC(C)CN(c1ccc(-c2ccc(OCC(=O)O)c(F)c2)cc1)S(=O)(=O)C1CCCCC1`: the EC50 in [1] was over 10 µM.

Compound `CC(C)CN(c1ccc(-c2ccc(OCC(=O)O)cc2)cc1)S(=O)(=O)c1c(Cl)cccc1Cl` gave an EC50 in data set [1] of 0.89 µM. The same measure, in the same setting: for `CC(C)CN(c1ccc(-c2cccc(C(=O)O)c2)cc1)S(=O)(=O)c1c(Cl)cccc1Cl` the value was over 10 µM. With `CC(C)CN(c1ccc(-c2ccc(OCC(=O)O)c(F)c2)cc1)S(=O)(=O)c1c(Cl)cccc1Cl`, the Activity entry in data set [2], in data set [3], in data set [4], in [5], in [6] and in [7] was “Non-Toxic” in each case. Moreover, the Activity entry in data set [8], in data set [9], in [10], in data set [11], in data set [12] and in data set [13] was “Non-Toxic” in each case. For the same compound, the Activity entry in [14], in [15], in [16] and in data set [17] was “Non-Toxic” throughout. `Cc1ccc(S(=O)(=O)N(CC(C)C)c2ccc(-c3ccc(OCC(=O)O)c(F)c3)cc2)cc1` came in with an EC50 in data set [1] of over 10 µM.

On to `Cc1ccc(S(=O)(=O)N(CC(C)C)c2ccc(-c3ccc(CCC(=O)O)cc3)cc2)cc1`, for which the EC50 in data set [1] is over 10 µM. Take `CC(C)CN(c1ccc(COc2cccc(CC(=O)O)c2)cc1)S(=O)(=O)c1c(Cl)cccc1Cl`: the EC50 in [1] was over 10 µM.

In data set [1], `CC(C)CN(c1ccc(-c2cccc(CC(=O)O)c2)cc1)S(=O)(=O)c1c(Cl)cccc1Cl` gave a 50% effective concentration (EC50) of over 10 µM. In the case of `O=C(O)c1cccc(-c2ccc(N(CC3CC3)S(=O)(=O)c3c(Cl)cccc3Cl)cc2)c1`, the EC50 in data set [1] is over 10 µM.

`CC(C)CN(c1ccc(-c2ccc(C3(C(=O)O)CC3)cc2)cc1)S(=O)(=O)c1c(Cl)cccc1Cl`: in data set [1], the EC50 is over 10 µM. With `CC(C)CN(c1ccc(-c2ccc(C(N)=O)cc2)cc1)S(=O)(=O)c1c(Cl)cccc1Cl`, the EC50 in [1] was over 10 µM. On the same count and under the same terms, the value for `CC(C)CN(c1ccc(COc2ccc3c(CC(=O)O)coc3c2)cc1)S(=O)(=O)c1c(Cl)cccc1Cl` was over 10 µM. Take `Cc1ccc(S(=O)(=O)N(CC(C)C)c2ccc(-c3ccc(C(=O)O)cc3)cc2)cc1`: in data set [1], the EC50 is over 10 µM.
